According to patent US7402548B2, “Benzoxazole compounds, process for producing the same and herbicides” (Kyoyu Agri Co., Ltd., priority 2000, dated 2008):

How the values were obtained:
[1] = system: solgum; experiment: Foliar spread test for upland field; format: in vivo; set-up: key: 0 = normal development, 5 = all killed (6 ranks vs. untreated); settings: foliar spray, 500 ppm, 3 weeks, glass house 25° C.
How it was run: (§1)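 Scores on a 0–5 scale (0 normal development, 5 all killed), relative to untreated controls, were taken 3 weeks post-treatment in a 25 °C glass house. Treatment was a uniform foliar spray at 500 ppm (0.5% surfactant) onto roughly 2-week-old soil-grown plants.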

[2] = system: corn; experiment: Foliar spread test for upland field; format: in vivo; set-up: key: 0 = normal development, 5 = all killed (6 ranks vs. untreated); settings: foliar spray, 500 ppm, 3 weeks, glass house 25° C.
How it was run: as §1

[3] = system: soybean; experiment: Foliar spread test for upland field; format: in vivo; set-up: key: 0 = normal development, 5 = all killed (6 ranks vs. untreated); settings: foliar spray, 500 ppm, 3 weeks, glass house 25° C.
How it was run: as §1

[4] = system: sugar beat; experiment: Foliar spread test for upland field; format: in vivo; set-up: key: 0 = normal development, 5 = all killed (6 ranks vs. untreated); settings: foliar spray, 500 ppm, 3 weeks, glass house 25° C.
How it was run: as §1

[5] = system: wheat; experiment: Foliar spread test for upland field; format: in vivo; set-up: key: 0 = normal development, 5 = all killed (6 ranks vs. untreated); settings: foliar spray, 500 ppm, 3 weeks, glass house 25° C.
How it was run: as §1

[6] = system: cotton; experiment: Foliar spread test for upland field; format: in vivo; set-up: key: 0 = normal development, 5 = all killed (6 ranks vs. untreated); settings: foliar spray, 500 ppm, 3 weeks, glass house 25° C.
How it was run: as §1

[7] = system: annual bluegrass; experiment: Soil treatment test for upland field; format: in vivo, Poa annua; set-up: key: 0 = normal development, 5 = all killed; settings: 500 g/ha, 3 weeks, glass house 25° C.
How it was run: (§2)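 Surface spray of freshly sown alluvial soil, 500 g/ha compound, water containing 0.05% surfactant. Visual 0–5 damage rating versus untreated after 3 weeks, glasshouse at 25° C average.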

[8] = system: Cassia obtusifolia; experiment: Foliar spread test for upland field; format: in vivo; set-up: key: 0 = normal development, 5 = all killed; settings: foliar spray, 500 ppm, 3 weeks, glass house 25° C.
How it was run: as §1

[9] = system: Xanthium pensylvanicum; experiment: Foliar spread test for upland field; format: in vivo; set-up: key: 0 = normal development, 5 = all killed; settings: foliar spray, 500 ppm, 3 weeks, glass house 25° C.
How it was run: as §1

[10] = system: Large crabgrass; experiment: Foliar spread test for upland field; format: in vivo, Digitaria adscendens; set-up: key: 0 = normal development, 5 = all killed (6 ranks vs. untreated); settings: foliar spray, 500 ppm, 3 weeks, glass house 25° C.
How it was run: as §1

[11] = system: barnyard grass; experiment: Herbicidal test for paddy field; format: in vivo, Eschinochloa crusgalli; settings: 500 g/ha, dropwise addition to paddy water at 1.5 leaf stage of barnyard grass; glass house 25° C., 3 weeks; rank 0-5 vs non-treated district; note: key: 0: normal development; 1: Less damaged; 2: Slightly damaged; 3: Moderately damaged; 4: Severely damaged; 5: All killed
How it was run: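 Wettable-powder formulations in water with 0.05% surfactant were dripped onto flooded (3 cm) Ube alluvial-soil pots at 500 g/ha, applied at barnyard grass 1.5-leaf stage. Plants were kept in a glasshouse at 25° C. for 3 weeks. Damage was scored 0 (normal) to 5 (all killed) versus untreated plants.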

[12] = system: morning glory; experiment: Soil treatment test for upland field; format: in vivo, Ipomoea spps.; set-up: key: 0 = normal development, 5 = all killed; settings: 500 g/ha, 3 weeks, glass house 25° C.
How it was run: as §2

[13] = system: common lambsquarters; experiment: Foliar spread test for upland field; format: in vivo, Chenopodium album; set-up: key: 0 = normal development, 5 = all killed (6 ranks vs. untreated); settings: foliar spray, 500 ppm, 3 weeks, glass house 25° C.
How it was run: as §1

[14] = system: velvetleaf; experiment: Foliar spread test for upland field; format: in vivo, Abutilon theophrasti; set-up: key: 0 = normal development, 5 = all killed (6 ranks vs. untreated); settings: foliar spray, 500 ppm, 3 weeks, glass house 25° C.
How it was run: as §1

[15] = system: blackgrass; experiment: Soil treatment test for upland field; format: in vivo, Alopecurus aegualis; set-up: key: 0 = normal development, 5 = all killed; settings: 500 g/ha, 3 weeks, glass house 25° C.
How it was run: as §2

[16] = system: livid amaranth; experiment: Soil treatment test for upland field; format: in vivo, Amaranthus lividus; set-up: key: 0 = normal development, 5 = all killed; settings: 500 g/ha, 3 weeks, glass house 25° C.
How it was run: as §2

[17] = system: blackgrass; experiment: Foliar spread test for upland field; format: in vivo, Alopecurus aegualis; set-up: key: 0 = normal development, 5 = all killed (6 ranks vs. untreated); settings: foliar spray, 500 ppm, 3 weeks, glass house 25° C.
How it was run: as §1

[18] = system: velvetleaf; experiment: Soil treatment test for upland field; format: in vivo, Abutilon theophrasti; set-up: key: 0 = normal development, 5 = all killed; settings: 500 g/ha, 3 weeks, glass house 25° C.
How it was run: as §2

[19] = system: annual bluegrass; experiment: Foliar spread test for upland field; format: in vivo, Poa annua; set-up: key: 0 = normal development, 5 = all killed (6 ranks vs. untreated); settings: foliar spray, 500 ppm, 3 weeks, glass house 25° C.
How it was run: as §1

[20] = system: common lambsquarters; experiment: Soil treatment test for upland field; format: in vivo, Chenopodium album; set-up: key: 0 = normal development, 5 = all killed; settings: 500 g/ha, 3 weeks, glass house 25° C.
How it was run: as §2

[21] = system: solgum; experiment: Soil treatment test for upland field; format: in vivo; set-up: key: 0 = normal development, 5 = all killed; settings: 500 g/ha, 3 weeks, glass house 25° C.
How it was run: as §2

[22] = system: corn; experiment: Soil treatment test for upland field; format: in vivo; set-up: key: 0 = normal development, 5 = all killed; settings: 500 g/ha, 3 weeks, glass house 25° C.
How it was run: as §2

[23] = system: sugar beat; experiment: Soil treatment test for upland field; format: in vivo; set-up: key: 0 = normal development, 5 = all killed; settings: 500 g/ha, 3 weeks, glass house 25° C.
How it was run: as §2

[24] = system: wheat; experiment: Soil treatment test for upland field; format: in vivo; set-up: key: 0 = normal development, 5 = all killed; settings: 500 g/ha, 3 weeks, glass house 25° C.
How it was run: as §2

[25] = system: barnyard grass; experiment: Soil treatment test for upland field; format: in vivo, Eschinochloa crusgalli; set-up: key: 0 = normal development, 5 = all killed; settings: 500 g/ha, 3 weeks, glass house 25° C.
How it was run: as §2

Structure (SMILES) | Effects Solgum [1] | Effects Corn [2] | Effects Soybean [3] | Effects Sugar beat [4] | Effects Wheat [5] | Effects Sotton [6] | Effects Annual bluegrass [7] | Effects Sicklepod [8] | Effects Common Cocklebur [9] | Effects Large crabgrass [10] | Effects Barnyardgrass [11] | Effects Morning glory [12] | Effects Common lambsquarters [13] | Effects Velvetleaf [14] | Effects Blackgrass [15] | Effects Livid amaranth [16] | Effects Blackgrass [17] | Effects Velvetleaf [18] | Effects Annual bluegrass [19] | Effects Common lambsquarters [20] | also measured
Fc1ccc2nc(-c3cccc(Oc4ccc(F)c(C(F)(F)F)c4)n3)oc2c1 [I-a-7] | 2 | 1 | 3 | 5 | 2 | 3 | 5 | 3 | 4 | 3 | 1 | 1 | 4 | 3 | 4 | 5 | 1 | 0 | 3 | 5 | Effects Solgum [21]: 0; Effects Corn [22]: 0; Effects Sugar beat [23]: 5; Effects Wheat [24]: 0; Effects Barnyardgrass [25]: 4
FC(F)(F)c1cccc(Oc2cccc(-c3nc4cc(Cl)ccc4o3)n2)c1 [I-a-3, 6-(5-chlorobenzoxazol-2-yl)-2-(3-trifluoromethylphenoxy)pyridine] | 1 | 1 | 3 | 4 | 1 | 4 | 5 | 4 | 4 | 2 | 3 | 3 | 5 | 4 | 4 | 5 | 1 | 3 | 4 | 5 | Effects Solgum [21]: 1; Effects Corn [22]: 1; Effects Sugar beat [23]: 5; Effects Wheat [24]: 1; Effects Barnyardgrass [25]: 4
Fc1ccc2nc(-c3cccc(Oc4cccc(C(F)(F)F)c4)n3)oc2c1 [I-a-6, 6-(6-fluorobenzoxazol-2-yl)-2-(3-trifluoromethylphenoxy)pyridine] | 3 | 3 | 5 | 5 | 3 | 3 | 5 | 5 | 5 | 5 | 4 | 5 | 5 | 5 | 5 | 5 | 5 | 2 | 5 | 5 | Effects Solgum [21]: 0; Effects Corn [22]: 0; Effects Sugar beat [23]: 5; Effects Wheat [24]: 1; Effects Barnyardgrass [25]: 5
